Values after ≈ are worked out from the molar mass of the structure shown. No end group written: not given here.
Tests used:
Format in all cases: cell-based
[1] = system: Staphylococcus aureus SH1000; assay: Killing experiment at 10x MIC, fast-growing (exponential) versus stationary phase bacteria in spent medium; settings: for Killing fold-change 4 h (median) / Killing fold-change 24 h: S. aureus SH1000, exponentially growing versus stationary phase cultures, 10x MIC, ~2 × 10^6 CFU/ml, 37°C, five independent cultures; for Killing of stationary phase bacteria at 4 h (in words) / Killing of stationary phase bacteria at 24 h (in words): stationary phase in spent medium
Description: (§1) For exponentially growing bacteria, five independent cultures per treatment were diluted 1:100 from a 16-h overnight culture (by adding 100 μl to 10 ml of MHB medium in 50 ml Falcon tubes). Then, the bacteria were grown for 2 h for E. coli and 2.5 h for S. aureus, to reach approximately 2 × 10^8 CFU/ml. The cultures were then diluted 1/100 in fresh medium to reach approximately 2 × 10^6 CFU/ml. […] Volumes of 100 μl-sample were extracted at 4 and 24 h. The aliquots were diluted and plated to determine cell viability. Non-treated cells were used as a control. All incubations took place at 37°C with shaking.
(§2) In order to maintain bacteria in their non-dividing state, we generated a medium to carry out the killing assays. From the supernatant of 500 ml of 48-h culture from each bacterium, the cells were pelleted at 4000 ×g for 30 min. The pH of each culture was adjusted to match the original pH of 7.2. To remove additional cell debris, flagella rest and outer membrane vesicles that could potentially interfere with the activity of AMPs ([Manning and Kuehn, 2011]), the supernatants were ultracentrifuged at 100000 ×g during 16 h at + 4°C. Thereafter, 250 ml of the supernatant from each flask was carefully recovered, without perturbing the pellet, and aseptically filtrated using 0.22 μm syringe filters and 40 ml were transferred to sterile 50 ml-falcon tubes, that were stored at −20°C until use. We refer to this medium as spent medium.
(§3) For stationary phase bacteria, five independent cultures per treatment were used. Bacteria from 48-h cultures containing approximately 3 × 10^9 CFU/ml for E. coli and 2 × 10^9 CFU/ml for S. aureus were diluted in spent medium (see preparation above) to a final cell density of 2×10^6 CFU/ml. Then, the bacteria were treated identically to the fast-growing bacteria killing experiment described above.
(§4) Statistical testing and plots were done in R version 3.3.2 ([R Core Team, 2017]), using Rstudio version 1.0.143 ([R Development Core Team, 2015]). To compare killing rates between bacteria growing in exponential and stationary phase for each antimicrobial after 4 and 24 h of exposure, a Welch’s t-test was used. Values below the detection limit (zero colony counts) were imputed for statistical purposes assigning a value of 1.

[2] = system: Escherichia coli K12; assay: as above; settings: for Killing fold-change 4 h (median) / Killing fold-change 24 h: E. coli K12, exponentially growing versus stationary phase cultures, 10x MIC, ~2 × 10^6 CFU/ml, 37°C, five independent cultures; for Killing of stationary phase bacteria at 4 h (in words) / Killing of stationary phase bacteria at 24 h (in words): stationary phase in spent medium
Description: as §1, §2, §3, §4

[3] = system: Staphylococcus aureus SH1000; assay: microbe, parasite or virus in culture; settings: for MIC: Staphylococcus aureus, SH1000, read-out: MIC S. aureus SH1000
Description: (§5) The Escherichia coli K12 from Yale University Microbial Stock Center and Staphylococcus aureus SH1000 ([Horsburgh et al., 2002]) were used for all experiments. All cultures related to antimicrobial tests and experiments were carried out in Mueller-Hinton I broth (Sigma) devoid of cations. Both strains were routinely cultured in Lysogeny Broth (LB medium).
(§6) The minimal inhibitory concentration for each antimicrobial were determined according to CLSI recommendations by the microdilution method ([CLSI, 2018]) with minor modifications for antimicrobial peptides ([Giacometti et al., 2000]). For comparison, we kept these modifications also for antibiotics. Inoculum size that was adjusted to approximately 1 × 10^6 CFU/ml from a 2-h mid-exponential phase obtained by diluting 100 μl of overnight cultures in 10 ml of fresh medium in 50 ml Falcon tubes. The MIC was defined as the minimal antimicrobial concentration that inhibited growth, after 24 h of incubation in liquid MHB medium at 37°C. Polypropylene non-binding plates (96 wells, Th. Geyer, Germany) were used for all experiments.

[4] = system: Escherichia coli K12; assay: microbe, parasite or virus in culture; settings: for MIC: Escherichia coli, K12, read-out: MIC E. coli K12
Description: as §5, §6

[5] = microdilution, inoculum ~1 × 10^6 CFU/ml mid-exponential phase, MHB devoid of cations, 24 h, 37°C, polypropylene non-binding plates

CC1(C)S[C@@H]2[C@H](NC(=O)[C@H](N)c3ccccc3)C(=O)N2[C@H]1C(=O)O [Ampicillin]
Killing fold-change 4 h (median) [1]: 13087.25
Killing fold-change 24 h [1]: 4,470,000
Killing of stationary phase bacteria at 4 h (in words) ([1]; S. aureus, 10 × MIC): did not kill
Killing of stationary phase bacteria at 24 h (in words) ([1]; S. aureus, 10 × MIC): poor killing capacity
Killing fold-change 4 h (median) [2]: 595.18
Killing fold-change 24 h [2]: 4,150,000
Killing of stationary phase bacteria at 4 h (in words) ([2]; E. coli, 10 × MIC): did not kill
Killing of stationary phase bacteria at 24 h (in words) ([2]; E. coli, 10 × MIC): poor killing capacity
MIC [3, 5]: 4 µg/mL (≈ 11.4 µM)
MIC [4, 5]: 2 µg/mL (≈ 5.72 µM)

O=C(O)c1cn(C2CC2)c2cc(N3CCNCC3)c(F)cc2c1=O [Ciprofloxacin]
Killing of stationary phase bacteria at 24 h (in words) ([1]; S. aureus, 10 × MIC): reduced microbial count for both models with a significantly lower efficacy than killing fast-replicating cultures
Killing of stationary phase bacteria at 24 h (in words) ([2]; E. coli, 10 × MIC): reduced microbial count for both models with a significantly lower efficacy than killing fast-replicating cultures

CNC(C)C1CCC(N)C(OC2C(N)CC(N)C(OC3OCC(C)(O)C(NC)C3O)C2O)O1 (centres unmarked) [Gentamicin]
Killing fold-change 4 h (median) [1]: 8508.47
Killing fold-change 24 h [1]: 2,890,000
Killing of stationary phase bacteria at 24 h (in words) ([1]; S. aureus, 10 × MIC): reduced microbial count for both models with a significantly lower efficacy than killing fast-replicating cultures
Killing fold-change 4 h (median) [2]: 10380.62
Killing fold-change 24 h [2]: 317,000
Killing of stationary phase bacteria at 24 h (in words) ([2]; E. coli, 10 × MIC): reduced microbial count for both models with a significantly lower efficacy than killing fast-replicating cultures
MIC [3, 5]: 4 µg/mL (≈ 8.38 µM)
MIC [4, 5]: 1 µg/mL (≈ 2.09 µM)

CC[C@H](C)[C@H](N)C(=O)N[C@@H](CC(C)C)C(=O)N1CCC[C@H]1C(=O)N[C@@H](Cc1c[nH]c2ccccc12)C(=O)N[C@@H](CCCCN)C(=O)N[C@@H](Cc1c[nH]c2ccccc12)C(=O)N1CCC[C@H]1C(=O)N[C@@H](Cc1c[nH]c2ccccc12)C(=O)N[C@@H](Cc1c[nH]c2ccccc12)C(=O)N1CCC[C@H]1C(=O)N[C@@H](Cc1c[nH]c2ccccc12)C(=O)N[C@@H](CCCNC(=N)N)C(=O)N[C@@H](CCCNC(=N)N)C(N)=O [Indolicidin]
Killing fold-change 24 h [1]: 1
Killing of bacterial cultures (in words) ([1]; S. aureus, 10 × MIC, fast and slow-replicating bacteria, both time-points 4 and 24 h): completely killing
Killing fold-change 24 h [2]: 1
Killing of bacterial cultures (in words) ([2]; E. coli, 10 × MIC, fast and slow-replicating bacteria, both time-points 4 and 24 h): completely killing
MIC S. aureus SH1000 [3, 5]: 8 µg/mL (≈ 4.2 µM)
MIC E. coli K12 [4, 5]: 16 µg/mL (≈ 8.39 µM)

CC[C@H](C)[C@H](NC(=O)[C@H](CCCCN)NC(=O)[C@H](CCC(=O)O)NC(=O)[C@H](CCCCN)NC(=O)[C@H](CO)NC(=O)[C@H](CCCCN)NC(=O)[C@H](CCCNC(=N)N)NC(=O)[C@H](Cc1ccccc1)NC(=O)[C@H](Cc1ccccc1)NC(=O)[C@H](CC(=O)O)NC(=O)CNC(=O)[C@H](CC(C)C)NC(=O)[C@@H](N)CC(C)C)C(=O)NCC(=O)N[C@@H](CCCCN)C(=O)N[C@@H](CCC(=O)O)C(=O)N[C@@H](Cc1ccccc1)C(=O)N[C@@H](CCCCN)C(=O)N[C@@H](CCCNC(=N)N)C(=O)N[C@H](C(=O)N[C@H](C(=O)N[C@@H](CCC(N)=O)C(=O)N[C@@H](CCCNC(=N)N)C(=O)N[C@H](C(=O)N[C@@H](CCCCN)C(=O)N[C@@H](CC(=O)O)C(=O)N[C@@H](Cc1ccccc1)C(=O)N[C@@H](CC(C)C)C(=O)N[C@@H](CCCNC(=N)N)C(=O)N[C@@H](CC(N)=O)C(=O)N[C@@H](CC(C)C)C(=O)N[C@H](C(=O)N1CCC[C@H]1C(=O)N[C@@H](CCCNC(=N)N)C(=O)N[C@H](C(=O)N[C@@H](CCC(=O)O)C(=O)N[C@@H](CO)C(=O)O)[C@@H](C)O)C(C)C)[C@@H](C)CC)C(C)C)[C@@H](C)CC [LL-37]
Killing fold-change 4 h (median) [1]: 0.66
Killing fold-change 24 h [1]: 1
Killing of stationary phase bacteria at 4 h (in words) ([1]; S. aureus, 10 × MIC): some delay in killing
Killing fold-change 4 h (median) [2]: 3.71
Killing fold-change 24 h [2]: 1
Killing of stationary phase bacteria at 4 h (in words) ([2]; E. coli, 10 × MIC): some delay in killing
MIC S. aureus SH1000 [3, 5]: 8 µg/mL (≈ 1.78 µM)
MIC E. coli K12 [4, 5]: 4 µg/mL (≈ 0.89 µM)

CC[C@H](C)[C@H](NC(=O)CN)C(=O)NCC(=O)N[C@@H](C)C(=O)N[C@H](C(=O)N[C@@H](CC(C)C)C(=O)N[C@@H](CCCCN)C(=O)N[C@H](C(=O)N[C@@H](CC(C)C)C(=O)N[C@H](C(=O)N[C@H](C(=O)NCC(=O)N[C@@H](CC(C)C)C(=O)N1CCC[C@H]1C(=O)N[C@@H](C)C(=O)N[C@@H](CC(C)C)C(=O)N[C@H](C(=O)N[C@@H](CO)C(=O)N[C@@H](Cc1c[nH]c2ccccc12)C(=O)N[C@H](C(=O)N[C@@H](CCCCN)C(=O)N[C@@H](CCCNC(=N)N)C(=O)N[C@@H](CCCCN)C(=O)N[C@@H](CCCNC(=N)N)C(=O)N[C@@H](CCC(N)=O)C(=O)N[C@@H](CCC(N)=O)C(N)=O)[C@@H](C)CC)[C@@H](C)CC)[C@@H](C)O)[C@@H](C)O)C(C)C)C(C)C [Melittin]
Killing fold-change 24 h [1]: 17
Killing of stationary phase bacteria at 4 h (in words) ([1]; S. aureus, 10 × MIC): some delay in killing
Killing of stationary phase bacteria at 4 h (in words) ([2]; E. coli, 10 × MIC): some delay in killing
MIC S. aureus SH1000 [3, 5]: 2 µg/mL (≈ 0.703 µM)
MIC E. coli K12 [4, 5]: 2 µg/mL (≈ 0.703 µM)

GIGKFLKKAKKFGKAFVKILKK-NH2 (C-terminus assumed) [Pexiganan]
Killing fold-change 4 h (median) [1]: 1.14
Killing fold-change 24 h [1]: 1
Killing of stationary phase bacteria at 4 h (in words) ([1]; S. aureus, 10 × MIC): some delay in killing
Killing fold-change 4 h (median) [2]: 2.53
Killing fold-change 24 h [2]: 1
Killing of stationary phase bacteria at 4 h (in words) ([2]; E. coli, 10 × MIC): some delay in killing
MIC S. aureus SH1000 ([3]; SH1000, 24 h): 8 µg/mL
MIC E. coli K12 ([4]; K12, 24 h): 4 µg/mL

KWKLFKKIEKVGQNIRDGIIKAGPAVAVVGQATQIAK-NH2 (C-terminus assumed) [Cecropin A]
Killing fold-change 4 h (median) [1]: 1.30
Killing fold-change 24 h [1]: 0.22
Killing of stationary phase bacteria at 4 h (in words) ([1]; S. aureus, 10 × MIC): some delay in killing
Killing fold-change 4 h (median) [2]: 1.21
Killing fold-change 24 h [2]: 27
Killing of stationary phase bacteria at 4 h (in words) ([2]; E. coli, 10 × MIC): some delay in killing
